For 26 compounds, Ki and IC50 results are on record in US10793563B2, “GCN2 inhibitors and uses thereof” (Merck Patent GmbH, priority 2018, dated 2020).

The target in one experiment is GCN2 kinase (Homo sapiens (Human), UniProt Q9P2K8). The experiment in a line: GCN2 Enzyme Inhibition Assay (Transcreener ADP2 fluorescence polarization). Format: biochemical. The following applies: 280 μM ATP, 200 μM (RS)7 peptide, 4 nM GCN2, 25° C.; for Ki: Ki(app). An outline of the steps: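 Transcreener ADP2 fluorescence polarization detection of ADP from 4 nM GCN2 with (RS)7 substrate in 25 mM Tris-HCl pH 7.5, 50 mM NaCl, 10 mM MgCl2, 1 mM DTT. Compound pre-incubated with enzyme 10 min at 25 °C; reaction started by ATP, run 1 h at 25 °C. IC50 and Ki(app) by tight-binding fit.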

The target of experiment [1] is intracellular GCN2 (phosphorylation of the GCN2 substrate eIF2α) (Homo sapiens (Human), UniProt Q9P2K8). Briefly: GCN2 Cellular Inhibition Assay (AlphaScreen SureFire P-eIF2α Ser51, borrelidin-treated U2OS cells). Conditions: 10 μM borrelidin, 1 h, phosphorylated eIF2α Ser51, read-out: GCN2 Biomarker (IC50). The format is cell-based. Summed up:
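U2OS cells adhered overnight, then given compound (top 40 μM, 4-fold serial dilutions) plus 10 μM borrelidin for 1 h at 37 °C. Lysates assayed for eIF2α phospho-Ser51 by AlphaScreen SureFire; % inhibition versus borrelidin-only wells.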
(In Alpha technology, singlet oxygen from a donor bead excites a nearby acceptor bead.)

Sequence of intracellular GCN2 (phosphorylation of the GCN2 substrate eIF2α) (Q9P2K8 whole entry): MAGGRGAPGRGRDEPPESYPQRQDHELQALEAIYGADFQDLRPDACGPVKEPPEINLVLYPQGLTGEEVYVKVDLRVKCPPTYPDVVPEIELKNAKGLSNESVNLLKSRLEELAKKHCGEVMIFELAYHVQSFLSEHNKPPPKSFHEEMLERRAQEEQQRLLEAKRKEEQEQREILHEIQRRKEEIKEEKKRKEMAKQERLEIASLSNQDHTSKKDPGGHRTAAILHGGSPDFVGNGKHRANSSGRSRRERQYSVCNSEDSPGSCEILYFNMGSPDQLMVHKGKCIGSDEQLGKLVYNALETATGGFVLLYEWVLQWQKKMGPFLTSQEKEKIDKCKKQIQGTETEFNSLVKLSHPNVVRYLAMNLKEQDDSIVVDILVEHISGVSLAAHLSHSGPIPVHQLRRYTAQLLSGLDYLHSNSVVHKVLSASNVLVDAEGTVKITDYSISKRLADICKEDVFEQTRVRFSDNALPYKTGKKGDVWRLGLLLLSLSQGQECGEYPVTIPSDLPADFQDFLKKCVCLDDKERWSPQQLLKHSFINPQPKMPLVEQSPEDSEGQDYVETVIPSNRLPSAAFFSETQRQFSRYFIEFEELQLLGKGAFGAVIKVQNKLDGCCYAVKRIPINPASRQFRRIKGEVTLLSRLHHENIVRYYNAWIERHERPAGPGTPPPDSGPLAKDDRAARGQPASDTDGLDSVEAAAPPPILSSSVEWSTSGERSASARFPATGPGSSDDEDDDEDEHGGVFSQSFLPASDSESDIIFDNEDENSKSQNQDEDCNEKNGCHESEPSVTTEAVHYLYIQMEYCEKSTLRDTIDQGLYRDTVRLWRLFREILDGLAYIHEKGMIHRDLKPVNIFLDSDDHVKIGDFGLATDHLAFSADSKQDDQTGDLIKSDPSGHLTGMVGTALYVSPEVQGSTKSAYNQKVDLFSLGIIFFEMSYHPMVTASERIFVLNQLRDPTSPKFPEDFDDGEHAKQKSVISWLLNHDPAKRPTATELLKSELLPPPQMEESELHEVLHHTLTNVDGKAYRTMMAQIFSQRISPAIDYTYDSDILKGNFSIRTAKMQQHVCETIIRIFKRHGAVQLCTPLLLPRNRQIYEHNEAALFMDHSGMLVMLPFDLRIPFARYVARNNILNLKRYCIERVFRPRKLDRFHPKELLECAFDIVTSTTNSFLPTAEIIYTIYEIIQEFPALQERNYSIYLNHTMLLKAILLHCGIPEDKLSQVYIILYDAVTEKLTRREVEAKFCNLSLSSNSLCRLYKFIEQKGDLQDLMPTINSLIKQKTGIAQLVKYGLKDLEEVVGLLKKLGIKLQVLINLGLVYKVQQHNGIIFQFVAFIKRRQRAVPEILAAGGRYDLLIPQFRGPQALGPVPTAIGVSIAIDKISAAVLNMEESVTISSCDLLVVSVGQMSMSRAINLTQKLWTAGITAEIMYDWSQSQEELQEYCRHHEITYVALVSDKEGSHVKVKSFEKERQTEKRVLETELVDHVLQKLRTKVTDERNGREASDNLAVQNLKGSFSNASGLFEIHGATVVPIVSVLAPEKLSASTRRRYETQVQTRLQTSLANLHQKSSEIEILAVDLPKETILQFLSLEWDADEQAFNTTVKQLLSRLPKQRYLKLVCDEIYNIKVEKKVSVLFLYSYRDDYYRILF
Sequence of GCN2 kinase (Q9P2K8 whole entry): as above

Consider `CP(C)(=O)C1CC(c2cn[nH]c2)CN(c2ccnc(-c3cnc4ccc(Cl)cn34)n2)C1` (stereo not shown) [I-29, 6-Chloro-3-[4-[3-dimethylphosphoryl-5-(1H-pyrazol-4-yl)-1-piperidyl]pyrimidin-2-yl]imidazo[1,2-a]pyridine], for which, on GCN2 kinase, the Ki is less than 10 nM. The IC50 in experiment [1] is greater than 5000 nM.

As for `N#C[C@H]1CCCN(c2ccnc(-c3cnc4ccc(C(F)(F)F)cn34)n2)C1` [I-227, (S)-1-(2-(6-(trifluoromethyl)imidazo[1,2-a]pyridin-3-yl)pyrimidin-4-yl)piperidine-3-carbonitrile], the IC50 was in the range of 10 to 100 nM on GCN2 kinase and 500 to 5000 nM in experiment [1].

On GCN2 kinase, `OCC1(c2ccccc2)CCCN(c2ccnc(-c3cnc4cc(F)c(Cl)cn34)n2)C1` (stereo not shown) [I-85, {1-[2-(6-Chloro-7-fluoro-imidazo[1,2-a]pyridin-3-yl)-pyrimidin-4-yl]-3-phenyl-piperidin-3-yl}-methanol] displayed a Ki of 100 to 1000 nM. In experiment [1], the IC50 was greater than 5000 nM.

At GCN2 kinase, `CS(=O)(=O)NCC1CCCN(c2nc(-c3cnc4ccc(C(F)(F)F)cn34)ns2)C1` (stereo not shown) [I-112, N-((1-(3-(6-(trifluoromethyl)imidazo[1,2-a]pyridin-3-yl)-1,2,4-thiadiazol-5-yl)piperidin-3-yl)methyl)methanesulfonamide] yielded a Ki of less than 10 nM. Besides, the IC50 in experiment [1] fell in the range of 500 to 5000 nM.

For the compound `O=C(CCn1ccnc1)N1CCN(c2ccnc(-c3cnc4ccc(C(F)(F)F)cn34)n2)CC1c1cn[nH]c1` (stereo not shown) [I-422, 1-(2-(1H-pyrazol-4-yl)-4-(2-(6-(trifluoromethyl)imidazo[1,2-a]pyridin-3-yl)pyrimidin-4-yl)piperazin-1-yl)-3-(1H-imidazol-1-yl)propan-1-one], the IC50 against GCN2 kinase is 10 to 100 nM; in experiment [1] it was greater than 5000 nM.

As for `FC(F)C1CN(c2ccnc(-c3cnc4ccc(C(F)(F)F)cn34)n2)CCO1` (stereo not shown) [I-225, 2-(difluoromethyl)-4-(2-(6-(trifluoromethyl)imidazo[12-a]pyridin-3-yl)pyrimidin-4-yl)morpholine], the IC50 at GCN2 kinase is 100 to 1000 nM; in experiment [1], 500 to 5000 nM.

On to `FC(F)(F)c1ccc2ncc(-c3nc(N4CCOC(c5cn[nH]c5)C4)ns3)n2c1` (stereo not shown) [I-108, 2-(1H-pyrazol-4-yl)-4-(5-(6-(trifluoromethyl)imidazo[1,2-a]pyridin-3-yl)-1,2,4-thiadiazol-3-yl)morpholine], for which, at GCN2 kinase, the Ki is less than 10 nM. Moreover, the IC50 in experiment [1] is less than 500 nM.

Consider `Cc1ncc(CN2CCN(c3ccnc(-c4cnc5ccc(C(F)(F)F)cn45)n3)CC2c2cn[nH]c2)[nH]1` (stereo not shown) [I-372, 3-(4-(4-((2-methyl-1H-imidazol-5-yl)methyl)-3-(1H-pyrazol-4-yl)piperazin-1-yl)pyrimidin-2-yl)-6-(trifluoromethyl)imidazo[1,2-a]pyridine], for which the IC50 against GCN2 kinase was less than 10 nM; in experiment [1], 500 to 5000 nM.

In the case of `O=C(c1cnoc1)N1CCN(c2ccnc(-c3cnc4ccc(C(F)(F)F)cn34)n2)CC1c1cn[nH]c1` (stereo not shown) [I-444, (2-(1H-pyrazol-4-yl)-4-(2-(6-(trifluoromethyl)imidazo[1,2-a]pyridin-3-yl)pyrimidin-4-yl)piperazin-1-yl)(isoxazol-4-yl)methanone], the IC50 at GCN2 kinase was in the range of 10 to 100 nM; in experiment [1], 500 to 5000 nM.

On to `C[C@@H]1C[C@H](N=S(C)(C)=O)CN(c2ccnc(-c3cnc4ccc(OC(F)F)cn34)n2)C1` [I-291, dimethyl(((3 S,5R)-5-methyl-1-(2-(6-(difluoromethoxy)imidazo[1,2-a]pyridin-3-yl)pyrimidin-4-yl)piperidin-3-yl)imino)-λ6-sulfanone], for which the IC50 at GCN2 kinase was 10 to 100 nM; in experiment [1], 500 to 5000 nM.

In the case of `CC1(C)CN(c2ccnc(-c3cnc4ccc(C(F)F)cn34)n2)CC2(CN(S(C)(=O)=O)C2)O1` [I-396, 8-(2-(6-(difluoromethyl)imidazo[1,2-a]pyridin-3-yl)pyrimidin-4-yl)-6,6-dimethyl-2-(methylsulfonyl)-5-oxa-2,8-diazaspiro[3.5]nonane], the IC50 against GCN2 kinase was 10 to 100 nM; in experiment [1] it was greater than 5000 nM.

Turning to `C[C@H]1C[C@@H](c2cn[nH]c2)CN(c2nccc(-c3cnc4ccc(Cl)cn34)n2)C1` [I-199, 6-chloro-3-(2-((3S,5S)-3-methyl-5-(1H-pyrazol-4-yl)piperidin-1-yl)pyrimidin-4-yl)imidazo[1,2-a]pyridine], the IC50 on GCN2 kinase was less than 10 nM; in experiment [1], less than 500 nM.

`CCOC1(N2CCN(c3ccnc(-c4cnc5ccc(C(F)(F)F)cn45)n3)C(C)C2c2cn[nH]c2)CC1` (stereo not shown) [I-348, 3-(4-(4-(1-ethoxycyclopropyl)-2-methyl-3-(1H-pyrazol-4-yl)piperazin-1-yl)pyrimidin-2-yl)-6-(trifluoromethyl)imidazo[1,2-a]pyridine]: the IC50 on GCN2 kinase was 10 to 100 nM; in experiment [1], less than 500 nM.

As for `O=C1NC[C@@]12CCCN(c1ccnc(-c3cnc4ccc(C(F)(F)F)cn34)n1)C2` [I-295, (R)-6-(2-(6-(trifluoromethyl)imidazo[1,2-a]pyridin-3-yl)pyrimidin-4-yl)-2,6-diazaspiro[3.5]nonan-1-one], the results for the IC50 (on GCN2 kinase; in experiment [1]) were 10 to 100 nM and 500 to 5000 nM, respectively.

Consider `C[C@@H]1CN(c2nccc(-c3cnc4cc(F)c(Cl)cn34)n2)C[C@H](c2cn[nH]c2)O1` [I-273, (2R,6S)-4-(4-(6-chloro-7-fluoroimidazo[1,2-a]pyridin-3-yl)pyrimidin-2-yl)-2-methyl-6-(1H-pyrazol-4-yl)morpholine], for which the IC50 on GCN2 kinase is less than 10 nM; in experiment [1], less than 500 nM.

For the compound `NC(=O)[C@@H]1CN(c2ccnc(-c3cnc4ccc(C(F)(F)F)cn34)n2)CCO1` [I-150, (S)-4-(2-(6-(trifluoromethyl)imidazo[1,2-a]pyridin-3-yl)pyrimidin-4-yl)morpholine-2-carboxamide], the results for the IC50 (at GCN2 kinase; in experiment [1]) were 10 to 100 nM and less than 500 nM, respectively.

Turning to `C[C@@H]1CN(c2ccnc(-c3cnc4ccc(C(F)(F)F)cn34)n2)C[C@H](C)N1C(=O)CC1COC1` [I-501, 1-(cis-2,6-dimethyl-4-(2-(6-(trifluoromethyl)imidazo[1,2-a]pyridin-3-yl)pyrimidin-4-yl)piperazin-1-yl)-2-(oxetan-3-yl)ethan-1-one], the IC50 on GCN2 kinase is 100 to 1000 nM; in experiment [1] it was 500 to 5000 nM.

As to `C[C@@H]1[C@@H](c2cn[nH]c2)N(C2COC2)CCN1c1ccnc(-c2cnc3ccc(C(F)(F)F)cn23)n1` [I-363, 3-(4-((2R,3R)-2-methyl-4-(oxetan-3-yl)-3-(1H-pyrazol-4-yl)piperazin-1-yl)pyrimidin-2-yl)-6-(trifluoromethyl)imidazo[1,2-a]pyridine], the figures for the IC50 (at GCN2 kinase; in experiment [1]) were 100 to 1000 nM and 500 to 5000 nM, respectively.

Regarding `CC1(F)CCCN(c2ccnc(-c3cnc4ccc(C(F)(F)F)cn34)n2)C1` (stereo not shown) [I-226, 3-(4-(3-fluoro-3-methylpiperidin-1-yl)pyrimidin-2-yl)-6-(trifluoromethyl)imidazo[1,2-a]pyridine], the IC50 against GCN2 kinase was 100 to 1000 nM; in experiment [1] it was 500 to 5000 nM.

With `C[C@@H]1C[C@H](N=S(C)(C)=O)CN(c2ccnc(-c3cnc4cc(F)c(Br)cn34)n2)C1` [I-317, (((3 S,5R)-1-(2-(6-bromo-7-fluoroimidazo[1,2-a]pyridin-3-yl)pyrimidin-4-yl)-5-methylpiperidin-3-yl)imino)dimethyl-λ6-sulfanone], the IC50 against GCN2 kinase fell in the range of 10 to 100 nM; in experiment [1], 500 to 5000 nM.

For the compound `CC1(C)CN(c2ccnc(-c3cnc4ccc(C(F)(F)F)cn34)n2)CC2(CNC2)O1` [I-294, 6,6-dimethyl-8-(2-(6-(trifluoromethyl)imidazo[1,2-a]pyridin-3-yl)pyrimidin-4-yl)-5-oxa-2,8-diazaspiro[3.5]nonane], the IC50 at GCN2 kinase is 100 to 1000 nM; in experiment [1], greater than 5000 nM.

For the compound `CN(C)C(=O)C1CCCN(c2ccnc(-c3cnc4ccc(C(F)(F)F)cn34)n2)C1` (stereo not shown) [I-130, N,N-dimethyl-1-(2-(6-(trifluoromethyl)imidazo[1,2-a]pyridin-3-yl)pyrimidin-4-yl)piperidine-3-carboxamide], the IC50 was in the range of 10 to 100 nM against GCN2 kinase and 500 to 5000 nM in experiment [1].

Take `Cc1cc(-c2cnc3ccc(Cl)cn23)nc(N2C[C@@H](C)O[C@H](c3cn[nH]c3C)C2)n1` [I-218, (2R,6R)-4-(4-(6-chloroimidazo[1,2-a]pyridin-3-yl)-6-methylpyrimidin-2-yl)-2-methyl-6-(5-methyl-1H-pyrazol-4-yl)morpholine]: the IC50 is 10 to 100 nM against GCN2 kinase and 500 to 5000 nM in experiment [1].

In the case of `Cc1[nH]ncc1C1NCCN(c2ccnc(-c3cnc4ccc(C(F)(F)F)cn34)n2)C1C` (stereo not shown) [I-321, 3-(4-(2-methyl-3-(5-methyl-1H-pyrazol-4-yl)piperazin-1-yl)pyrimidin-2-yl)-6-(trifluoromethyl)imidazo[1,2-a]pyridine], the IC50 lay in the range of 10 to 100 nM against GCN2 kinase and 500 to 5000 nM in experiment [1].

For `Cc1[nH]ncc1[C@H]1CN(c2ccnc(-c3cnc4cc(F)c(Cl)cn34)n2)C[C@@H](C)O1` [I-540, (2R,6S)-4-(2-(6-chloro-7-fluoroimidazo[1,2-a]pyridin-3-yl)pyrimidin-4-yl)-2-methyl-6-(5-methyl-1H-pyrazol-4-yl)morpholine], the results for the IC50 (on GCN2 kinase; in experiment [1]) were less than 10 nM and less than 500 nM, respectively.

`C[C@H](NS(C)(=O)=O)[C@@H]1CN(c2ccnc(-c3cnc4ccc(C(F)(F)F)cn34)n2)CCO1` [I-407, N—((S)-1-((S)-4-(2-(6-(trifluoromethyl)imidazo[1,2-a]pyridin-3-yl)pyrimidin-4-yl)morpholin-2-yl)ethyl)methanesulfonamide]: the values for the IC50 (on GCN2 kinase; in experiment [1]) were 10 to 100 nM and 500 to 5000 nM, respectively.

For orientation: IC50 means the concentration at which inhibition is half-maximal.
